Read-outs that look alike come from different tables or passages of the source.
Experiments:
Assay type in all cases: in vivo, human
[1] = test system: serum IGF-1; assay: Phase 1 study Part 1: PD, serum IGF-1 concentration
Experimental: The serum IGF-1 concentration values remained stable over the sampling time interval post dose. At pre-dose, mean (SD) serum IGF-1 concentration values were 200.9 (50.41) ng/mL for Treatment A, 192.6 (50.55) ng/mL for Treatment B, 192.5 (47.67) ng/mL for Treatment C, and 195.8 (47.16) ng/mL for Treatment D. At 24 h post-dose, the serum concentration values rose to 224.7 (48.70) ng/mL in Treatment A, 224.2 (50.24) ng/mL in Treatment B, 230.4 (60.81) ng/mL in Treatment C, and 223.7 (56.75) ng/mL in Treatment D.

[2] = test system: serum IGF-1; assay: Phase 1 study Part 2: PD, serum IGF-1 concentration fasted vs fed
Experimental: The serum IGF-1 concentration values remained stable over the sampling time interval post dose. At pre-dose, mean (SD) serum […] concentration values were 209.2 (54.28) ng/mL for Treatment A and 188.8 (26.11) ng/mL for Treatment B. At 24 h post-dose, the serum GH concentration value peaked at 244.7 (37.66) ng/mL in Treatment A and 220.8 (43.50) ng/mL in Treatment B.

[3] = Phase 1 study Part 2: food effect on plasma PK of LUM-201 capsule; details: for % AUCex, Arithmetic Mean / % AUCex, Geometric Mean / Clast, Arithmetic Mean / Clast, Geometric Mean / tlag, Median / tlast, Median / λz, Arithmetic Mean / λz, Geometric Mean / AUC(0-inf) / AUC(0-t) / Cmax / half-life / Tmax: oral; for AUC(0-inf) / AUC(0-t) / Cmax / half-life / Tmax: human, plasma, po, 85.3 mg; for Tmax: read-out: tmax, Median
Description: This was a single center, open-label, randomized, Phase 1 study in healthy adult subjects. This study consisted of 2 parts: Part 1 was a 4-sequence, 4-treatment, 4 Treatment Periods, crossover study to determine the relative bioavailability of current tablets to new capsule formulations of LUM-201; Part 2 was a 2-sequence, 2-treatment, 2 Treatment Periods, crossover study to evaluate the food effect on the bioavailability of the new capsule formulation of LUM-201. An individual subject was allowed to participate in only 1 part (Part 1 or Part 2) of the study. Forty subjects were planned and enrolled in this study. • Part 1: A total of 28 subjects were planned and enrolled in Part 1. Part 1 consisted of 4 sequences, each having 4 Treatment Periods enrolling 7 subjects (1:1:1:1 ratio). During Treatment Periods 1 through 4, each subject received 4 single oral doses of LUM-201 drug product in a randomized, crossover order. • Part 2: A total of 12 subjects were planned and enrolled in Part 2. Part 2 consisted of 2 sequences, each having 2 Treatment Periods enrolling 6 subjects (1:1 ratio). Each subject received a single oral dose of LUM-201 at each Treatment Period. During Treatment Periods 1 and 2, each subject received 2 single oral doses of LUM-201 in a randomized, crossover order. • On Day 1 of Treatment Period 1, subjects were administered the assigned treatment (A or B) as randomized, followed by a washout of at least 3 days between Treatment Periods 1 and 2. Subjects stayed in-house (not discharged) between the Treatment Periods. • Treatment A was dosed at 85.3 mg capsule formulation of LUM-201 (intact capsule consumed unopened) consumed while subject was in a fasted state with 240 mL of water. • Treatment B was dosed at 85.3 mg capsule formulation of LUM-201 (intact capsule consumed unopened) consumed 30 minutes after start of a high-fat meal with 240 mL of water. • Subjects were discharged from the study center on the morning of Day 3 of Treatment Period 2 after the scheduled study assessments had been completed.
Fasted Treatment Period (Treatments A): Each subject received a single dose of LUM-201 in the morning of Day 1 after an overnight fast of at least 10 hours.
Treatment A was dosed at 85.3 mg capsule formulation of LUM-201 (intact capsule consumed unopened) consumed while subject was in a fasted state with 240 mL of water.
Fed Treatment Period (Treatment B): On the morning of Day 1, following an overnight fast of at least 10 hours, a high-fat breakfast (approximately 800 to 1000 calories) was served approximately 30 minutes before the planned dosing time. Subjects were required to eat the entire breakfast in less than 30 minutes.
Treatment B was dosed at 85.3 mg capsule formulation of LUM-201 (intact capsule consumed unopened) consumed 30 minutes after the start of the high-fat breakfast with 240 mL of water according to the FDA Guidance 20225. […]

[4] = 85.3 mg capsule with food vs fasted, statistically significant
[5] = Part 2, Treatment A: 85.3 mg capsule, fasted
[6] = Part 2, Treatment B: 85.3 mg capsule, 30 minutes after start of high-fat meal

## CC(C)(N)C(=O)N[C@H](COCc1ccccc1)C(=O)N1CCC2(CC1)CN(S(C)(=O)=O)c1ccccc12 [LUM-201, N-[1(R)-[(1,2-dihydro-1-methanesulfonylspiro[3H-indole-3,4′-piperdin]-yl)carbonyl]-2-(phenylmethyloxy)ethyl]-2-amino-2-methylpropanamide methanesulfonate]
[1]; 24 h post-dose, Part 1, Treatment A: five 18 mg tablets (90 mg), fasted
  serum IGF-1 concentration, mean (SD): 224.7 (48.70) ng/mL
[1]; 24 h post-dose, Part 1, Treatment B: 85.3 mg whole capsule, fasted
  serum IGF-1 concentration, mean (SD): 224.2 (50.24) ng/mL
[1]; 24 h post-dose, Part 1, Treatment C: 85.3 mg capsule contents (dry), fasted
  serum IGF-1 concentration, mean (SD): 230.4 (60.81) ng/mL
[1]; 24 h post-dose, Part 1, Treatment D: 85.3 mg capsule contents in banana puree
  serum IGF-1 concentration, mean (SD): 223.7 (56.75) ng/mL
[1]; pre-dose, Part 1, Treatment A: five 18 mg tablets (90 mg), fasted
  serum IGF-1 concentration, mean (SD): 200.9 (50.41) ng/mL
[1]; pre-dose, Part 1, Treatment B: 85.3 mg whole capsule, fasted
  serum IGF-1 concentration, mean (SD): 192.6 (50.55) ng/mL
[1]; pre-dose, Part 1, Treatment C: 85.3 mg capsule contents (dry), fasted
  serum IGF-1 concentration, mean (SD): 192.5 (47.67) ng/mL
[1]; pre-dose, Part 1, Treatment D: 85.3 mg capsule contents in banana puree
  serum IGF-1 concentration, mean (SD): 195.8 (47.16) ng/mL
[2]; 24 h post-dose, Part 2, Treatment A: 85.3 mg capsule, fasted
  serum IGF-1 concentration: 244.7 (37.66) ng/mL
[2]; 24 h post-dose, Part 2, Treatment B: 85.3 mg capsule after high-fat meal
  serum IGF-1 concentration: 220.8 (43.50) ng/mL
[2]; Part 2, Treatment A (fasted state) and Treatment B (fed state)
  serum IGF-1 concentration values and trend, fasted vs fed: comparable
[2]; pre-dose, Part 2, Treatment A: 85.3 mg capsule, fasted
  serum IGF-1 concentration: 209.2 (54.28) ng/mL
[2]; pre-dose, Part 2, Treatment B: 85.3 mg capsule after high-fat meal
  serum IGF-1 concentration: 188.8 (26.11) ng/mL
[3]; 85.3 mg capsule with food vs fasted
  food effect on tmax: no significant effect
[3]; [4]
  increase of AUC0-inf with food: 17.8%
  increase of AUC0-last with food: 17.8%
  increase of Cmax with food: 64.4%
[3]; [5]
  % AUCex, Arithmetic Mean: 1.868%
  % AUCex, Geometric Mean: 1.689%
  Clast, Arithmetic Mean: 0.7762 ng/mL
  Clast, Geometric Mean: 0.7216 ng/mL
  tlag, Median: 0.2489 h
  tlast, Median: 48.03 h
  λz, Arithmetic Mean: 0.0874 h⁻¹
  λz, Geometric Mean: 0.0848 h⁻¹
  Tmax: 1.53 h
[3]; [6]
  % AUCex, Arithmetic Mean: 2.081%
  % AUCex, Geometric Mean: 1.845%
  Clast, Arithmetic Mean: 0.9223 ng/mL
  Clast, Geometric Mean: 0.8783 ng/mL
  tlag, Median: 0.2906 h
  tlast, Median: 48.00 h
  λz, Arithmetic Mean: 0.0829 h⁻¹
  λz, Geometric Mean: 0.0803 h⁻¹
  Tmax: 1.5 h
[3]; Part 2, Treatment A: 85.3 mg capsule, fasted, read-out: AUC0-inf, Arithmetic Mean
  AUC(0-inf): 538 ng·h/mL
[3]; Part 2, Treatment A: 85.3 mg capsule, fasted, read-out: AUC0-inf, Geometric Mean
  AUC(0-inf): 504 ng·h/mL
[3]; Part 2, Treatment A: 85.3 mg capsule, fasted, read-out: AUC0-last, Arithmetic Mean
  AUC(0-t): 528 ng·h/mL
[3]; Part 2, Treatment A: 85.3 mg capsule, fasted, read-out: AUC0-last, Geometric Mean
  AUC(0-t): 494 ng·h/mL
[3]; Part 2, Treatment A: 85.3 mg capsule, fasted, read-out: Cmax, Arithmetic Mean
  Cmax: 87.3 ng/mL
[3]; Part 2, Treatment A: 85.3 mg capsule, fasted, read-out: Cmax, Geometric Mean
  Cmax: 80.5 ng/mL
[3]; Part 2, Treatment A: 85.3 mg capsule, fasted, read-out: t1/2, Arithmetic Mean (converted)
  half-life: 8.39 h
[3]; Part 2, Treatment A: 85.3 mg capsule, fasted, read-out: t1/2, Geometric Mean (converted)
  half-life: 8.17 h
[3]; Part 2, Treatment B: 85.3 mg capsule, 30 minutes after start of high-fat meal, read-out: AUC0-inf, Arithmetic Mean
  AUC(0-inf): 626 ng·h/mL
[3]; Part 2, Treatment B: 85.3 mg capsule, 30 minutes after start of high-fat meal, read-out: AUC0-inf, Geometric Mean
  AUC(0-inf): 591 ng·h/mL
[3]; Part 2, Treatment B: 85.3 mg capsule, 30 minutes after start of high-fat meal, read-out: AUC0-last, Arithmetic Mean
  AUC(0-t): 614 ng·h/mL
[3]; Part 2, Treatment B: 85.3 mg capsule, 30 minutes after start of high-fat meal, read-out: AUC0-last, Geometric Mean
  AUC(0-t): 579 ng·h/mL
[3]; Part 2, Treatment B: 85.3 mg capsule, 30 minutes after start of high-fat meal, read-out: Cmax, Arithmetic Mean
  Cmax: 151 ng/mL
[3]; Part 2, Treatment B: 85.3 mg capsule, 30 minutes after start of high-fat meal, read-out: Cmax, Geometric Mean
  Cmax: 134 ng/mL
[3]; Part 2, Treatment B: 85.3 mg capsule, 30 minutes after start of high-fat meal, read-out: t1/2, Arithmetic Mean (converted)
  half-life: 8.87 h
[3]; Part 2, Treatment B: 85.3 mg capsule, 30 minutes after start of high-fat meal, read-out: t1/2, Geometric Mean (converted)
  half-life: 8.61 h
